From paper PMC7139940, “Comparative Analysis of High-Throughput Assays of Family-1 Plant Glycosyltransferases” (International Journal of Molecular Sciences, 2020)

These compounds were tested on T1, UGT72B27 (assay: UDP-Glo luminescent UDP release assay, 384-well). Details: 100 µM UDP-glucose, 50 mM Tris/HCl pH 7.5, 30 °C, 10 min, heat stop; poorly soluble, high DMSO; read-out: b. UDP-Glo^TM Assay / KM.
T1 construct: recombinant GST fusion (pGEX-4T-1) from E. coli BL21(DE3) pLysS, purified on GST resin
Type: biochemical, Vitis vinifera
Source text: UDP-Glo luminescent UDP release assay, 384-well on UGT72B27
In the case of `Oc1ccc(/C=C/c2cc(O)cc(O)c2)cc1` [trans-Resveratrol], the Km is reported as 21 ± 5 µM.

Same assay, conditions: 100 µM UDP-glucose, 50 mM Tris/HCl pH 7.5, 30 °C, 10 min, heat stop; read-out: b. UDP-Glo^TM Assay / KM
`COc1cccc(OC)c1O` [DMP, 2,6-Dimethoxyphenol] showed a Km of 23 ± 3 µM.
Work on `CC1=C(O)C(=O)C(C)O1` (centres unmarked) [Furaneol] yielded a Km of 453 ± 35 µM.
Work on `COc1ccccc1O` [Guaiacol, 2-Methoxyphenol] yielded a Km of 23 ± 1 µM.
For `COc1cc(C)cc(OC)c1O` [MDMP, 4-Methyl-2,6-dimethoxyphenol], the Km was 173 ± 28 µM.
`COc1cc(C)ccc1O` [MMP, 2-Methoxy-4-methylphenol] gave a Km of 41 ± 9 µM.
Work on `Oc1ccccc1` [Phenol] yielded a Km of 153 ± 24 µM.
Work on `Oc1cc(O)cc(O)c1` [Phloroglucinol] yielded a Km of 35 ± 4 µM.
Compound `Cc1ccc(C(C)C)c(O)c1` [Thymol] has a Km of 28 ± 7 µM.
Compound `Cc1cccc(O)c1` [m-Cresol] has a Km of 14 ± 3 µM.
With `Cc1ccccc1O` [o-Cresol] the Km was 40 ± 5 µM.
